Test results taken from ChEMBL document CHEMBL1142268, “Histone deacetylase inhibitors: from bench to clinic” (J Med Chem, 2008).
The source made the active and inactive calls. No cut-off for these calls is given here.

Columns and labels:
Histone deacetylase 3 = Histone deacetylase 3 (Homo sapiens, UniProt O15379)
Histone deacetylase 4 [1] = target: T1, Histone deacetylase 4 (Homo sapiens, UniProt P56524); test: Inhibition of HDAC4 at 50 uM
Histone deacetylase 8 = target: T2, Histone deacetylase 8 (Homo sapiens, UniProt Q9BY41)
T2 sequence (Q9BY41 whole entry): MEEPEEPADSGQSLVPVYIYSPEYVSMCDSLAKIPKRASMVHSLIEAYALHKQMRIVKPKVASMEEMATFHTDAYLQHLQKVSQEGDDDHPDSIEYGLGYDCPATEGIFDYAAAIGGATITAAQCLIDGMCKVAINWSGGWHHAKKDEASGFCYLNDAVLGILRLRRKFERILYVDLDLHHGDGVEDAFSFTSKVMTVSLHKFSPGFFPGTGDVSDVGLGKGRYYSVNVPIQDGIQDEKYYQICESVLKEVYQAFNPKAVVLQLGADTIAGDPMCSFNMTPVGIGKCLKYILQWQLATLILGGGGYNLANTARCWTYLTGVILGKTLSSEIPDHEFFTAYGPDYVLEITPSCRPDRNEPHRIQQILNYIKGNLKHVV

[2] = target: T3, Protein deacetylase HDAC6 (Homo sapiens, UniProt Q9UBN7)
T3 sequence (Q9UBN7 whole entry): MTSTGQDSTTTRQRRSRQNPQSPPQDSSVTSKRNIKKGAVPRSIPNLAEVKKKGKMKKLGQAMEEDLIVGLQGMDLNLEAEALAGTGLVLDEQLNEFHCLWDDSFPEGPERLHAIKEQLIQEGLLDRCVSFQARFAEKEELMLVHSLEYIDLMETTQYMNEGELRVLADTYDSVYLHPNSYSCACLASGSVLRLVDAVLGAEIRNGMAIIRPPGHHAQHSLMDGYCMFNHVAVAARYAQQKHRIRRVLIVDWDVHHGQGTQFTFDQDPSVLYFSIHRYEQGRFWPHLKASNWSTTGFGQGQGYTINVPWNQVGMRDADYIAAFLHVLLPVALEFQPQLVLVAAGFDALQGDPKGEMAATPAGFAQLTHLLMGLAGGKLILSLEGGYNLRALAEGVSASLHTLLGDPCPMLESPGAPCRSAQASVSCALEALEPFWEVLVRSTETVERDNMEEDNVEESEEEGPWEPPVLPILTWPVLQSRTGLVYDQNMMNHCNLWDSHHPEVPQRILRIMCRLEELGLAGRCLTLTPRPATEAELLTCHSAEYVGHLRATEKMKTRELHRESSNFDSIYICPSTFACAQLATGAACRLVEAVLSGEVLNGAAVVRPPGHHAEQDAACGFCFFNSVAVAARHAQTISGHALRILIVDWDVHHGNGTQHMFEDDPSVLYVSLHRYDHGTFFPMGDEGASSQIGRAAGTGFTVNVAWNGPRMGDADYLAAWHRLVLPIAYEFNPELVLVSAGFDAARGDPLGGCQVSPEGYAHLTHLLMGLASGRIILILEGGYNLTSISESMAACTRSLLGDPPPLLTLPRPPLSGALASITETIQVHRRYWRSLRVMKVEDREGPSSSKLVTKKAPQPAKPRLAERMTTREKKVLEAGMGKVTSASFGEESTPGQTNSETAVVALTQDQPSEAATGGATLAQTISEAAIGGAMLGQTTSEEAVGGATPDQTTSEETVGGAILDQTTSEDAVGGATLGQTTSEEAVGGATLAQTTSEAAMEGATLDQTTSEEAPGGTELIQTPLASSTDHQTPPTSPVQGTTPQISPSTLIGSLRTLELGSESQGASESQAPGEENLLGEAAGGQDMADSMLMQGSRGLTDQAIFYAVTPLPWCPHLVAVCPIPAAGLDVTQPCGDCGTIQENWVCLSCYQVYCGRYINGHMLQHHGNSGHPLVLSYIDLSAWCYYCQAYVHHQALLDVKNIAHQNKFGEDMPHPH

Histone deacetylase 9 = Histone deacetylase 9 (Homo sapiens, UniProt Q9UKV0)
Histone deacetylase 9, sequence (Q9UKV0 whole entry): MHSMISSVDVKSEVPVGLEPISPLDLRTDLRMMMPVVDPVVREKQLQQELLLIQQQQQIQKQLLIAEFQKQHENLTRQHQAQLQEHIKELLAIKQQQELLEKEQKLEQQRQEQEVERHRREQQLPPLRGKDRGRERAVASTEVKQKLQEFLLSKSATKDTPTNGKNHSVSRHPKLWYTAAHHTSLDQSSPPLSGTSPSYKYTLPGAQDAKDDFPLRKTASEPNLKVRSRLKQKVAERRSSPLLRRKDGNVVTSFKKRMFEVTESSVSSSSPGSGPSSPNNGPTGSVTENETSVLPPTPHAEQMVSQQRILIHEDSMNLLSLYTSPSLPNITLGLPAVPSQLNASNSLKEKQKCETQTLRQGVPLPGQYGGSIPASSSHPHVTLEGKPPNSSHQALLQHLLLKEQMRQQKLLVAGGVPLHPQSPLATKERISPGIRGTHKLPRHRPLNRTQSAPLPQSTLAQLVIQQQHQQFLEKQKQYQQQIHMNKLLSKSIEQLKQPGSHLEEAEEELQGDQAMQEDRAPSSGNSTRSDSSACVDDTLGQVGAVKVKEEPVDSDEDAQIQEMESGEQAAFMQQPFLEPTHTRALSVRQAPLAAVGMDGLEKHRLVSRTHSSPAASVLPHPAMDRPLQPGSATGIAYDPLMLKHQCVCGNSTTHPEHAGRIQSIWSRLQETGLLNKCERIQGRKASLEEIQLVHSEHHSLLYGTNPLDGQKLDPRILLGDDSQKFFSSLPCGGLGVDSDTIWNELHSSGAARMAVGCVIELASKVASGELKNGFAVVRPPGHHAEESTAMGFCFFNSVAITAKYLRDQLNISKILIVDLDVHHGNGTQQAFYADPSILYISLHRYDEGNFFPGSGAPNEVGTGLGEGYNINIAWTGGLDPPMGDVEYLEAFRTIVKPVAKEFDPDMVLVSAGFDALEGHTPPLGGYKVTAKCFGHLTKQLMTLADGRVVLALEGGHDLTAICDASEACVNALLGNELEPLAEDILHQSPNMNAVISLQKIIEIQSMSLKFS

Histone deacetylase 5 = Histone deacetylase 5 (Homo sapiens, UniProt Q9UQL6)
Histone deacetylase 5, sequence (Q9UQL6 whole entry): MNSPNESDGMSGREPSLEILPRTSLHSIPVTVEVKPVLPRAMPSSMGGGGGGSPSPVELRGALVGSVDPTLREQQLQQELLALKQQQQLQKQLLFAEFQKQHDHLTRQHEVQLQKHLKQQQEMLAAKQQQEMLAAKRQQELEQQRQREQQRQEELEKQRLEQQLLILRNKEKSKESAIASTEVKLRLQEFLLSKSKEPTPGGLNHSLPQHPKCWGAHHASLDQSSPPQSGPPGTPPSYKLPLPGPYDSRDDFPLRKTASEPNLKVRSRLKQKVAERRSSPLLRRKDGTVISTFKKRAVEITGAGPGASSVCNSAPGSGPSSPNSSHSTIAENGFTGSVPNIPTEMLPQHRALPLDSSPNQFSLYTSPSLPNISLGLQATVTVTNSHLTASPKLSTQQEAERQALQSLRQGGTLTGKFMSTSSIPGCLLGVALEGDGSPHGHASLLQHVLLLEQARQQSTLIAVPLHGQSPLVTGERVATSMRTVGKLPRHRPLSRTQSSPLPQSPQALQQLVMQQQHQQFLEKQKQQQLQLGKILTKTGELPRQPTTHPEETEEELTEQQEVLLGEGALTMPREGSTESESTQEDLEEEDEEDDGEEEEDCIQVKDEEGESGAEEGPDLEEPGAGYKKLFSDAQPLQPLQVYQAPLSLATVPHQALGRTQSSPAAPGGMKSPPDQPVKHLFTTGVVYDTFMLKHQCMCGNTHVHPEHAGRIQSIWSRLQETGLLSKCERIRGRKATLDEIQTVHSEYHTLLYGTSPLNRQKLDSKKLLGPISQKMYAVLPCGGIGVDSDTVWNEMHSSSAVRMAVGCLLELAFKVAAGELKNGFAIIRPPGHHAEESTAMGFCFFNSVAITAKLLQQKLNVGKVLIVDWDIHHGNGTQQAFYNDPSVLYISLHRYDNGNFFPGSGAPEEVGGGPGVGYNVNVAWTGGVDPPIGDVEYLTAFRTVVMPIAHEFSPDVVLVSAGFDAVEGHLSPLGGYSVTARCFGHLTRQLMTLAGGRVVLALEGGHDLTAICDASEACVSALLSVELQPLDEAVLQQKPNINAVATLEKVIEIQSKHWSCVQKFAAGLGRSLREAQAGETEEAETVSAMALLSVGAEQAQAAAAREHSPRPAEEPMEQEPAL

Histone deacetylase 7 = Histone deacetylase 7 (Homo sapiens, UniProt Q8WUI4)
Histone deacetylase 7, sequence (Q8WUI4 whole entry): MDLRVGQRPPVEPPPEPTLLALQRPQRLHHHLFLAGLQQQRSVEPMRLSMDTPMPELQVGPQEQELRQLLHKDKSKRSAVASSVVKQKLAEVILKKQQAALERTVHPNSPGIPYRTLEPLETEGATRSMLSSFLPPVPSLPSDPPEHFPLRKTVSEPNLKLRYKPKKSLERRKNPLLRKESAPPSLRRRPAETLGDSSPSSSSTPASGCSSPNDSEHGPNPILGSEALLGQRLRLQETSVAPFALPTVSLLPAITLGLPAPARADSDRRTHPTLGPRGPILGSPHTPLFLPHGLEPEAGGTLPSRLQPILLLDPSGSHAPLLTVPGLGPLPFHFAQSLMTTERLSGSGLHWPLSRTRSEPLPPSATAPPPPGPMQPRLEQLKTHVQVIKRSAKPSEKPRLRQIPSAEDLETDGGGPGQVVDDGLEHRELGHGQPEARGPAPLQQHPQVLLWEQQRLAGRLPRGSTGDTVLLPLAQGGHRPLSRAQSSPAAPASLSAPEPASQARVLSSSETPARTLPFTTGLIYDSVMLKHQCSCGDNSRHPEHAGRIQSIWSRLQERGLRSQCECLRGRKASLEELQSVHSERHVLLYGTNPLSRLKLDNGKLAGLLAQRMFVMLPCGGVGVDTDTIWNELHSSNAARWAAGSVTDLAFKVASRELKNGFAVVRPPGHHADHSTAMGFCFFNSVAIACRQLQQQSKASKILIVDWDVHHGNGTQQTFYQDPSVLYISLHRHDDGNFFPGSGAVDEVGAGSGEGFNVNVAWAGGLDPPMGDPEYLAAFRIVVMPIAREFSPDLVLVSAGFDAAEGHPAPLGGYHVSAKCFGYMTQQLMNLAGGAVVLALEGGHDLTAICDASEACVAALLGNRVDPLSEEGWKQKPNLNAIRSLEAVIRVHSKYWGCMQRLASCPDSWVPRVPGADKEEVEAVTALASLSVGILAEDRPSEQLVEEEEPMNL

COLO 205 = test: Inhibition of human CoLo205 cells; assay type: functional
HCT-116 [3] = test: Inhibition of human HCT116 cells; assay type: functional, cell-based
Histone deacetylase 1 [4] = target: T4, Histone deacetylase 1 (Homo sapiens, UniProt Q13547)
T4 sequence (Q13547 whole entry): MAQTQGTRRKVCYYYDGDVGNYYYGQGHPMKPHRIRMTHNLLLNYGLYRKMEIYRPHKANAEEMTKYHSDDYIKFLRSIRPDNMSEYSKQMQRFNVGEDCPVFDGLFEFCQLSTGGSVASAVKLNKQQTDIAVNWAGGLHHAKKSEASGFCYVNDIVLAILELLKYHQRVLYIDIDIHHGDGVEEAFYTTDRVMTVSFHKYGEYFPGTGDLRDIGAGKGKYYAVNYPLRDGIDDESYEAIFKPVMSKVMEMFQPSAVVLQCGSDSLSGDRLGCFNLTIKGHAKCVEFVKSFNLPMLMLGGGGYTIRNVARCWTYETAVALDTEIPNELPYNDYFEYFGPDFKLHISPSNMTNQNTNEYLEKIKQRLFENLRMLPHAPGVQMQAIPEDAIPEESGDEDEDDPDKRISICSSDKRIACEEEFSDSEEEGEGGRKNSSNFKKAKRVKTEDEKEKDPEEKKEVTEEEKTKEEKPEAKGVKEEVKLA
Description: Inhibition of human HDAC1

Histone deacetylase 1 [5] = target: T4, Histone deacetylase 1; remark: listed apart in the source
Description: Inhibition of human HDAC1 assessed as histone H4 acetylation in cell based assay

Histone deacetylase 1 [6] = target: Histone deacetylase 1 (Mus musculus, UniProt O09106)
Description: Inhibition of mouse liver HDAC1

Histone deacetylase 1 [7] = target: T4, Histone deacetylase 1; remark: listed apart in the source
[8] = target: Histone deacetylase 8 (Homo sapiens) (UniProt Q9BY41)
[9] = Bioavailability in […] dosed rat; assay type: ADME, organism-based; settings: in vivo
A549 [10] = test: Antitumor activity against human A549 cells xenografted in nude mouse model at 50 mg/kg, po; assay type: functional; settings: read-out: TGI
PANC-1 = test: Antitumor activity against human PANC1 cells xenografted in nude mouse model at 50 mg/kg, po; assay type: functional; settings: read-out: TGI
SW48 [11] = test: Antitumor activity against human SW48 cells xenografted in nude mouse model at 30 mg/kg, po; assay type: functional; settings: read-out: TGI
A549 [12] = test: Antitumor activity against human A549 cells xenografted in nude mouse model at 40 mg/kg, ip; assay type: functional; settings: route intraperitoneal, read-out: TGI
HCT-116 [13] = test: Antitumor activity against human HCT116 cells xenografted in nude mouse model at 75 mg/kg, ip; assay type: functional; settings: HCT-116, ip, route intraperitoneal, read-out: TGI
SW48 [14] = test: Antitumor activity against human SW48 cells xenografted in nude mouse model at 75 mg/kg, ip; assay type: functional; settings: route intraperitoneal, read-out: TGI
SK-BR-3 = test: Antiproliferative activity against human SKBR3 cells; assay type: functional, cell-based
MKN-45 = test: Antiproliferative activity against human MKN45 cells; assay type: functional, cell-based
MCF7 = test: Inhibition of human MCF7 cells; assay type: functional, cell-based
A549 [15] = test: Antitumor activity against human A549 cells xenografted in nude mouse model at 20 mg/kg, ip; assay type: functional; settings: route intraperitoneal, read-out: TGI
HCT-116 [16] = test: Antitumor activity against human HCT116 cells xenografted in nude mouse model at 20 mg/kg, ip; assay type: functional; settings: HCT-116, ip, route intraperitoneal, read-out: TGI
SW48 [17] = test: Antitumor activity against human SW48 cells xenografted in nude mouse model at 20 mg/kg, ip; assay type: functional; settings: route intraperitoneal, read-out: TGI
SW-620 = test: Inhibition of human SW620 cells; assay type: functional, cell-based
[18] = Inhibition of human CCD1059SK cells; assay type: functional, cell-based
A549 [19] = test: cells; settings: Homo sapiens
Description: Antiproliferative activity against human A549 cells

Histone deacetylase 1 [20] = target: T4, Histone deacetylase 1; test: Inhibition of HDAC1
HeLa = test: Inhibition of human HeLa cells; assay type: functional, cell-based
HL-60 = test: Inhibition of human HL60 cells; assay type: functional
A549 [21] = test: Antitumor activity against human A549 cells xenografted in nude mouse model at 70 mg/kg, po; assay type: functional; settings: read-out: TGI
SW48 [22] = test: Antitumor activity against human SW48 cells xenografted in nude mouse model at 60 mg/kg, po; assay type: functional; settings: read-out: TGI
SW48 [23] = test: Antitumor activity against human SW48 cells xenografted in nude mouse model at 25 mg/kg, ip; assay type: functional; settings: route intraperitoneal, read-out: TGI
Cytochrome P450 3A4 = Cytochrome P450 3A4 (Homo sapiens, UniProt P08684); test: Inhibition of CYP3A4; assay type: ADME
NCI-H460 = test: Inhibition of human NCI-H460 cells; assay type: functional, cell-based
MDA-MB-231 = test: Inhibition of human MDA-MB-231 cells; assay type: functional, cell-based
SNB-78 = test: Inhibition of human SNB78 cells; assay type: functional, cell-based
NCI-H226 = test: Inhibition of human NCI-H226 cells; assay type: functional, cell-based
LOX IMVI = test: Inhibition of human LOX-IMVI cells; assay type: functional, cell-based
SK-OV-3 = test: Inhibition of human SKOV3 cells; assay type: functional, cell-based
[24] = Inhibition of human RFX631L cells; assay type: functional
St-4 = test: Inhibition of human St4 cells; assay type: functional, cell-based
DU-145 = test: Inhibition of human DU145 cells; assay type: functional, cell-based
Histone deacetylase 2 = Histone deacetylase 2 (Homo sapiens, UniProt Q92769)
Histone deacetylase 1 [25] = target: T4, Histone deacetylase 1; test: Inhibition of HDAC1 from human HeLa cells; assay type: cell-based
[26] = Metabolic stability in human liver microsomes; assay type: ADME, Microsome
U-937 = test: Inhibition of human U937 cells; assay type: functional, cell-based
A2780 = test: Inhibition of human A2780 cells; assay type: functional, cell-based
G-401 = test: Inhibition of human G401 cells; assay type: functional, cell-based
[27] = Growth inhibition of human renal epithelial cells; assay type: functional, cell-based; settings: Epithelial cell
Histone deacetylase 4 [28] = target: T1, Histone deacetylase 4
[29] = target: Histone deacetylase 7 (Homo sapiens) (UniProt Q8WUI4); test: Inhibition of HDAC7
Histone deacetylase 4 [30] = target: T1, Histone deacetylase 4; remark: listed apart in the source

T1 sequence (P56524 whole entry): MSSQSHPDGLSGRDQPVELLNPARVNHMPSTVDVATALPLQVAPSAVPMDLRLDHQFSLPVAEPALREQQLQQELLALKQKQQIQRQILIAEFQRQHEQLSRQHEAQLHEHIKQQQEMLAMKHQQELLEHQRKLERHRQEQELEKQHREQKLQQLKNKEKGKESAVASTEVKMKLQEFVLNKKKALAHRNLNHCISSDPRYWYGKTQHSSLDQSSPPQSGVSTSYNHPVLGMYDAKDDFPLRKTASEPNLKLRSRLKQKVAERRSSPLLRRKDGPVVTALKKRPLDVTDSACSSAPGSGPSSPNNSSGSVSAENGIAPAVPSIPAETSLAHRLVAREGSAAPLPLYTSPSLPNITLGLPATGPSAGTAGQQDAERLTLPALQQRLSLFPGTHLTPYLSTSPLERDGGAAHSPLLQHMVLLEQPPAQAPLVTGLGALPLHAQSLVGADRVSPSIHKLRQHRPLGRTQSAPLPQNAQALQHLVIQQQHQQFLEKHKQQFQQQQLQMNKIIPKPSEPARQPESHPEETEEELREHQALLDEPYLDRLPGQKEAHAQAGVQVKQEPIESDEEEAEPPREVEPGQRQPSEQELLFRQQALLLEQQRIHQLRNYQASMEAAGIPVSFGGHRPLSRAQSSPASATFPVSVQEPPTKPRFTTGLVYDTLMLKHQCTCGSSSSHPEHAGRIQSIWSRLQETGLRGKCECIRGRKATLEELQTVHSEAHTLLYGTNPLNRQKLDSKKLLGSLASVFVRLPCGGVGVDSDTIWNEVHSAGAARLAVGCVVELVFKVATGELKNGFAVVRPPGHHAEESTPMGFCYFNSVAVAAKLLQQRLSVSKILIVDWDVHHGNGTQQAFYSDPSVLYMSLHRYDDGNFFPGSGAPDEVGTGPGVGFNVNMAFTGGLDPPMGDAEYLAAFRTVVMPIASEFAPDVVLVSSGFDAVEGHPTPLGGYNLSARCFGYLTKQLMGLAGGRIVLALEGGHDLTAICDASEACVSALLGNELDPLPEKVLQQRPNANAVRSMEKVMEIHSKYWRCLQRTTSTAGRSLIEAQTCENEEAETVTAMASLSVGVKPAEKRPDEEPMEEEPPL
Histone deacetylase 3, sequence (O15379 whole entry): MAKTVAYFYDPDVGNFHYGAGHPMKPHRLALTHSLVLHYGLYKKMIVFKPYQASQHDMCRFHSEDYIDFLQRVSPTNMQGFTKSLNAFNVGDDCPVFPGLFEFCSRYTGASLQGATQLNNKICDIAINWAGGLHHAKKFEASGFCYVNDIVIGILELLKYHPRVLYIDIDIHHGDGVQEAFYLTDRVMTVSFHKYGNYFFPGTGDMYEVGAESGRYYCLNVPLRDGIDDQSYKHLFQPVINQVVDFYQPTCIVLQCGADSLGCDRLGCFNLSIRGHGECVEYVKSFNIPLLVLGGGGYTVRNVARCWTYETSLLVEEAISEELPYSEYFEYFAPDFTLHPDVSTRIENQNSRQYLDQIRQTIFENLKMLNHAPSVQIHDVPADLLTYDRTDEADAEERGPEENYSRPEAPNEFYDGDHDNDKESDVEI

## CC(C)[C@H]1NC(=O)[C@@H](C)[C@@H](C/C=C\CCC(=O)O)NC(=O)[C@@H](Cc2ccccc2)NC(=O)[C@@H](C)NC1=O [AZUMAMIDE E]
Histone deacetylase 3
  IC50: 0.08 µM
Histone deacetylase 4 [1]
  inhibition: 30%
Histone deacetylase 8
  IC50: 3.7 µM
[2]
  IC50: 12 µM
Histone deacetylase 9
  IC50: 28 µM
Histone deacetylase 5
  IC50: 10 µM
Histone deacetylase 7
  IC50: 9.7 µM

## CC(C)(C)NCc1c(-c2ccccc2)nc2cc(/C=C/C(=O)NO)ccn12
COLO 205
  GI50: 0.26 µM

## Nc1ccccc1NC(=O)CCCCCCNC(=O)c1ccc(-c2ccccc2)nc1
HCT-116 [3]
  IC50: 5 µM
Histone deacetylase 1 [4]
  IC50: 3 µM
Histone deacetylase 1 [5]
  EC50: 5 µM

## CC(C)(c1ccccc1)c1cc(=O)[nH]c(SCCCCCC(=O)NO)n1
Histone deacetylase 1 [6]
  IC50: 0.121 µM

## O=C(CCc1ccccc1)Nc1ccc(C(=O)Nc2ccc(Oc3ccccc3)cc2)cc1
Histone deacetylase 1 [7]
  IC50: 1.5 µM
[8]
  Activity: inactive

## COc1ccc(NCc2ccc(C(=O)Nc3ccccc3N)cc2)cc1OC
HCT-116 [3]
  IC50: 0.4 µM
[9]
  bioavailability: 20%
A549 [10]
  inhibition in vivo at 50 mg/kg: 67%
PANC-1
  inhibition in vivo at 50 mg/kg: 84%
SW48 [11]
  inhibition in vivo at 30 mg/kg: 78%
A549 [12]
  inhibition in vivo at 40 mg/kg: 73%
HCT-116 [13]
  inhibition in vivo at 75 mg/kg: 86%
SW48 [14]
  inhibition in vivo at 75 mg/kg: 100%

## Nc1ccccc1NC(=O)c1ccc(CNC(=O)OCc2cccnc2)cc1 [ENTINOSTAT]
SK-BR-3
  IC50: 0.87 µM
MKN-45
  IC50: 4.16 µM
MCF7
  IC50: 4.3 µM
HCT-116 [3]
  IC50: 0.5 µM
A549 [15]
  inhibition in vivo at 20 mg/kg: 46%
HCT-116 [16]
  inhibition in vivo at 20 mg/kg: 56%
SW48 [17]
  inhibition in vivo at 20 mg/kg: 68%
SW-620
  IC50: 3.2 µM
[18]
  IC50: 65 µM
A549 [19]
  IC50: 3.58 µM

## S=c1[nH]cc(-c2ccncc2)[nH]1
Histone deacetylase 1 [20]
  Activity: inactive

## Nc1ccc(F)cc1NC(=O)c1ccc(CNC(=O)/C=C/c2ccccc2)cc1
HeLa
  GI50: 40 µM
HL-60
  GI50: 0.4 µM

## COc1cc(NCc2ccc(/C=C/C(=O)Nc3ccccc3N)cc2)cc(OC)c1OC
HCT-116 [3]
  IC50: 2 µM
A549 [21]
  inhibition in vivo at 70 mg/kg: 40%
SW48 [22]
  inhibition in vivo at 60 mg/kg: 16%
HCT-116 [16]
  inhibition in vivo at 20 mg/kg: 80%
SW48 [23]
  inhibition in vivo at 25 mg/kg: 73%

## O=C(NO)c1ccc(-c2ccn(CCNCc3ccc4c(c3)OCO4)n2)s1
MKN-45
  IC50: 0.63 µM
Cytochrome P450 3A4
  IC50: 0.51 µM

## CC(C)C(=O)SCCCCCCC(=O)Nc1nc(-c2ccccc2)cs1
NCI-H460
  EC50: 2 µM
MDA-MB-231
  EC50: 2.3 µM
SNB-78
  EC50: 9.1 µM
HCT-116 [3]
  EC50: 3 µM
NCI-H226
  EC50: 2.6 µM
LOX IMVI
  EC50: 1.1 µM
SK-OV-3
  EC50: 4.5 µM
[24]
  EC50: 2.4 µM
St-4
  EC50: 5 µM
DU-145
  EC50: 4.5 µM

## CC(=O)CCCCC[C@H](NC1CCCCN1C)C(=O)Nc1nc(-c2ccccc2)cs1 (stereo not given in full)
Histone deacetylase 3
  IC50: 0.014 µM
MCF7
  IC50: 0.23 µM
Histone deacetylase 2
  IC50: 0.17 µM
HCT-116 [3]
  IC50: 0.67 µM
Histone deacetylase 1 [25]
  IC50: 0.43 µM
[26]
  microsomal CLint: 54 µL/min/mg
U-937
  IC50: 0.45 µM
A2780
  IC50: 1.7 µM
G-401
  IC50: 0.25 µM
[27]
  IC50: > 20 µM
HeLa
  IC50: 0.43 µM
Histone deacetylase 1 [7]
  IC50: 0.055 µM
Histone deacetylase 8
  IC50: 3 µM
Histone deacetylase 1 [4]
  IC50: 0.055 µM
[2]
  IC50: 0.013 µM
Histone deacetylase 5
  IC50: 1.9 µM
Histone deacetylase 4 [28]
  AC50: Not Active
A549 [19]
  IC50: 2 µM
[29]
  Activity: inactive

## CC(=O)Nc1ccc(C(=O)Nc2cc(-c3cccs3)ccc2N)cc1
Histone deacetylase 8
  IC50: > 20 µM
Histone deacetylase 4 [30]
  IC50: > 20 µM
Histone deacetylase 5
  IC50: > 20 µM
Histone deacetylase 7
  IC50: > 20 µM
